“And” between values parts separate entries of the source, which are not always exact repeats. Equal entries are not always repeated.
How the values were obtained:
Assay type in all cases: in vivo, beagle dogs
fibrin clot = assay: Fibrinolytic action: lysis of 125I-fibrin clot made from plasma obtained 48 hr after drug administration; conditions: for Fibrinolysis (%) : (24 hr after addition of Urokinase): N 4, mean S.E.
Method: The plasma obtained 48 hr after drug administration in Test Example 1 was used in this test.
To 0.35 ml of plasma was added 40 µl ^125I-fibrinogen (185 kBq/ml) and the mixture was dispensed to 3 test tubes, 0.1 ml per tube. To each of the test tubes was added 10 µl each of 100 µU/ml thrombin solution and 0.5 M calcium chloride solution and, after stirring, each tube was incubated at 37°C for 30 min to prepare a fibrin clot. Then, 2% albumin-saline containing 0, 50 or 100 U of urokinase was added to the tubes, 1 ml per tube. The tubes were incubated at 37°C and at 0, 3, 6, 9, 21 and 24 hr of incubation, 50µl of the supernatant was taken in a RIA tube and using a γ-counter (Packard Japan, A5424), the amount of the ^125I-fibrin degradated product was determined.

α2-PI = assay: Assay of α2-PI activity in plasma after oral administration; conditions: oral once a day for 3 days (0, 24, 48 hr), 116 mg/kg compound A as printed, Fig. 1
Method: The drugs were administered to groups of 4 beagle dogs (22-23 months old, body weights 9-11 kg) and the blood was serially sampled (-120, 0, 6, 24, 48, 72, 96, and 168 hr) for assay of α2-PI activity. One capsule of either compound A or compound B was administered orally once a day for 3 days (at 0, 24, and 48 hr) [116 mg/kg compound A or 300 mg/kg compound B (equimolar to compound A)]. Blood sampling was carried out by drawing 9 volumes of blood into a vacuum blood sampling tube containing 1 volume of 3.8% sodium citrate and, after gentle mixing, each blood sample was centrifuged (3,000 rpm x 10 min.) to separate the plasma. The plasma α2-PI activity was assayed with Test Team APL 2 Kit using the cleavage of the synthetic chromogenic substrate S-2251 as an indicator by plasmin.

[1] = Observation for evaluation of diarrhea (stool property); design: key to stool property: -: normal stool; ±: slightly soft stool; +: soft stool; ++: mild diarrhea; +++: diarrhea; conditions: for stool property: one line per animal
From the text: In Test Example 1, the stool property was monitored every day and rated on the 5-point scale of -: normal, ±: slightly soft stool, +: soft stool, ++: mild diarrhea, +++: diarrheal.

| stool property ([1]; Day 1, 300mg/kg oral once a day for 3 days, 300 mg/kg) | stool property ([1]; Day 3, 300mg/kg oral once a day for 3 days, 300 mg/kg) | stool property ([1]; Day 4, 300mg/kg oral once a day for 3 days, 300 mg/kg) | stool property ([1]; Day 7, 300mg/kg oral once a day for 3 days, 300 mg/kg) | stool property ([1]; Day 1, 116mg/kg oral once a day for 3 days, 116 mg/kg) | stool property ([1]; Day 3, 116mg/kg oral once a day for 3 days, 116 mg/kg) | stool property ([1]; Day 4, 116mg/kg oral once a day for 3 days, 116 mg/kg) | stool property ([1]; Day 7, 116mg/kg oral once a day for 3 days) | Compound | Fibrinolysis (%) : (24 hr after addition of Urokinase) (fibrin clot; Urokinase 0U, 300mg/kg) [%] | Fibrinolysis (%) : (24 hr after addition of Urokinase) (fibrin clot; Urokinase 50U, 300mg/kg) [%] | Fibrinolysis (%) : (24 hr after addition of Urokinase) (fibrin clot; Urokinase 100U, 300mg/kg) [%] | fibrinolytic activity (fibrin clot; urokinase addition level of 100 U) | α2-PI activity (α2-PI) | diarrhea-inducing effect ([1]; summary of Table 2) | Fibrinolysis (%) : (24 hr after addition of Urokinase) (fibrin clot; Urokinase 0U, 116mg/kg) [%] | Fibrinolysis (%) : (24 hr after addition of Urokinase) (fibrin clot; Urokinase 50U, 116mg/kg) [%] | Fibrinolysis (%) : (24 hr after addition of Urokinase) (fibrin clot; Urokinase 100U, 116mg/kg) [%] |
| --- | --- | --- | --- | --- | --- | --- | --- | --- | --- | --- | --- | --- | --- | --- | --- | --- | --- |
| + and - and ± and +++ | +++ and ± (2×) and - | ± (2×) and - (2×) | ± and - (3×) |  |  |  |  | CCCC(=O)OCC1C(OC(=O)CCC)C(OC(=O)CCC)C(OC(=O)CCC)CN1C (centres unmarked) [Compound A, 2,3,4,5-tetra-O-butyryl-N-methyl-moranoline] | 143 ± 27 | 278 ± 31 | 342 ± 30 | significantly accelerated the fibrinolytic activity | decreased α2-PI activity significantly | less remarkable in diarrhea-inducing effect than compound B |  |  |  |
|  |  |  |  | +++ (2×) and ++ and + | +++ (3×) and + + | + (2×) and ± (2×) | - | CN1C[C@H](O)[C@@H](O)[C@H](O)[C@H]1CO [Compound B, N-methylmoranoline, reference compound] |  |  |  |  |  |  | 172 ± 56 | 213 ± 27 | 340 ± 49 |
